Key:
[1] = system: LNCaP mutant AR-mediated transcription; test: Luciferase transactivation assay in LNCaP cells transfected with ARR2-Luc; settings: 18 h
Protocol: Luciferase Transactivation Assay: Transcriptional activation assay is carried out as described previously by Kim et al., above, with minor modifications. […] The pRL-null (Promega) is used as the internal control. […] Luciferase activities are measured in triplicates by using dual luciferase assay system according to the manufacturer's instruction (Promega).
The bars represent the mean light units [counts per second (cps)/unit protein, i.e., relative luciferase activity] in triplicate wells from three separate experiments.

Compound	effect on luciferase activity, compound alone ([1]; 0.1 and 10.0 μM, without DHT)	effect on luciferase expression induced by 1.0 nM DHT ([1]; with 1.0 nM DHT)	melting point [°C]
C[C@]12CC[C@H](O)CC1=CC[C@@H]1[C@@H]2CC[C@]2(C)C(n3cnc4ccccc43)=CC[C@@H]12 [Compound 5, 3β-Hydroxy-17-(1H-benzimidazol-1-yl)androsta-5,16-diene]	no effect	decreased in a concentration-dependent manner	–
C[C@]12CCC(=O)C=C1CC[C@@H]1[C@@H]2CC[C@]2(C)C(n3cnc4ccccc43)=CC[C@@H]12 [Compound 6, 17-(1H-benzimidazol-1-yl)androsta-4,16-diene-3-one]	–	–	201 to 204
